Source: PubChem BioAssay (NCI)
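Method: 48-hour compound exposure of cells in 96-well plates, five concentrations, linear interpolation of endpoints. GI50 marks 50% less growth. TGI: total growth inhibition.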

Tests used:
Assay in all cases: growth of human tumour cells (NCI), 48 h
U251 CNS = test system: U251 CNS
DU-145 prostate = test system: DU-145 prostate
RXF 393 renal = test system: RXF 393 renal
HCC-2998 colon = test system: HCC-2998 colon
SK-MEL-28 melanoma = test system: SK-MEL-28 melanoma
OVCAR-5 ovarian = test system: OVCAR-5 ovarian
A549 NSCLC = test system: A549 NSCLC
NCI-H460 lung = test system: NCI-H460 lung
MCF7 breast = test system: MCF7 breast
HCT-15 colon = test system: HCT-15 colon
SK-MEL-5 melanoma = test system: SK-MEL-5 melanoma
OVCAR-4 ovarian = test system: OVCAR-4 ovarian
HOP-62 NSCLC = test system: HOP-62 NSCLC
K-562 leukemia = test system: K-562 leukemia
OVCAR-8 ovarian = test system: OVCAR-8 ovarian
MDA-MB-435 = test system: MDA-MB-435
SNB-75 CNS = test system: SNB-75 CNS
OVCAR-3 ovarian = test system: OVCAR-3 ovarian
CCRF-CEM leukemia = test system: CCRF-CEM leukemia
IGROV1 ovarian = test system: IGROV1 ovarian
UO-31 renal = test system: UO-31 renal
A498 renal = test system: A498 renal
NCI/ADR-RES ovarian = test system: NCI/ADR-RES ovarian
LOX IMVI melanoma = test system: LOX IMVI melanoma
SF-295 CNS = test system: SF-295 CNS
SW-620 colon = test system: SW-620 colon
HL-60(TB) leukemia = test system: HL-60(TB) leukemia
HS 578T breast = test system: HS 578T breast
RPMI-8226 leukemia = test system: RPMI-8226 leukemia

OCc1ccc(-c2ccc(-c3ccc(CO)o3)o2)o1
GI50 (U251 CNS): 39.1 µM | TGI (U251 CNS): > 100 µM | GI50 (DU-145 prostate): > 62.4 µM | TGI (DU-145 prostate): > 100 µM | GI50 (RXF 393 renal): 26.5 µM | TGI (RXF 393 renal): > 90 µM | GI50 (HCC-2998 colon): > 82 µM | TGI (HCC-2998 colon): > 100 µM | GI50 (SK-MEL-28 melanoma): > 100 µM | TGI (SK-MEL-28 melanoma): > 100 µM | GI50 (OVCAR-5 ovarian): 0.641 µM | TGI (OVCAR-5 ovarian): 3 µM | GI50 (A549 NSCLC): > 100 µM | TGI (A549 NSCLC): > 100 µM | GI50 (NCI-H460 lung): > 100 µM | TGI (NCI-H460 lung): > 100 µM | GI50 (MCF7 breast): 16.7 µM | TGI (MCF7 breast): > 100 µM | GI50 (HCT-15 colon): > 100 µM | TGI (HCT-15 colon): > 100 µM | GI50 (SK-MEL-5 melanoma): > 100 µM | TGI (SK-MEL-5 melanoma): > 100 µM | GI50 (OVCAR-4 ovarian): > 41.3 µM | TGI (OVCAR-4 ovarian): > 100 µM | GI50 (HOP-62 NSCLC): 27.1 µM | TGI (HOP-62 NSCLC): > 78 µM | GI50 (K-562 leukemia): > 100 µM | TGI (K-562 leukemia): > 100 µM | GI50 (OVCAR-8 ovarian): > 100 µM | TGI (OVCAR-8 ovarian): > 100 µM | GI50 (MDA-MB-435): > 100 µM | TGI (MDA-MB-435): > 100 µM | GI50 (SNB-75 CNS): 23.2 µM | TGI (SNB-75 CNS): 79.7 µM | GI50 (OVCAR-3 ovarian): > 84.6 µM | TGI (OVCAR-3 ovarian): > 100 µM | GI50 (CCRF-CEM leukemia): > 100 µM | TGI (CCRF-CEM leukemia): > 100 µM | TGI (IGROV1 ovarian): > 31.2 µM | GI50 (UO-31 renal): > 100 µM | TGI (UO-31 renal): > 100 µM | GI50 (A498 renal): 0.18 µM | TGI (A498 renal): 0.39 µM | GI50 (NCI/ADR-RES ovarian): > 100 µM | TGI (NCI/ADR-RES ovarian): > 100 µM | GI50 (LOX IMVI melanoma): > 100 µM | TGI (LOX IMVI melanoma): > 100 µM | GI50 (SF-295 CNS): 23.7 µM | TGI (SF-295 CNS): > 100 µM | GI50 (SW-620 colon): > 100 µM | TGI (SW-620 colon): > 100 µM | GI50 (HL-60(TB) leukemia): > 100 µM | TGI (HL-60(TB) leukemia): > 100 µM | GI50 (HS 578T breast): > 31.2 µM | TGI (HS 578T breast): > 62.6 µM | GI50 (RPMI-8226 leukemia): > 100 µM
